Data: patent US5656603A (Loyola University of Chicago, priority 1995, dated 1997)
Values joined by “and” are separate entries in the source; they are usually repeats but may differ in a detail not shown here. Identical values can stand only once.

Assays:
endopeptidase 24.15 = target: T1, endopeptidase 24.15 (Rattus norvegicus, UniProt P24155); test: Specificity of apstatin: endopeptidase 24.15; type: biochemical; details: rat brain synaptosomes; Bk(2-9), pH 6.8, HPLC-1
T1 construct: endopeptidase 24.15 (EC 3.4.24.15) (rat brain synaptosomes); from tissue; host or cells: rat brain synaptosomes
T1 sequence (P24155 whole entry): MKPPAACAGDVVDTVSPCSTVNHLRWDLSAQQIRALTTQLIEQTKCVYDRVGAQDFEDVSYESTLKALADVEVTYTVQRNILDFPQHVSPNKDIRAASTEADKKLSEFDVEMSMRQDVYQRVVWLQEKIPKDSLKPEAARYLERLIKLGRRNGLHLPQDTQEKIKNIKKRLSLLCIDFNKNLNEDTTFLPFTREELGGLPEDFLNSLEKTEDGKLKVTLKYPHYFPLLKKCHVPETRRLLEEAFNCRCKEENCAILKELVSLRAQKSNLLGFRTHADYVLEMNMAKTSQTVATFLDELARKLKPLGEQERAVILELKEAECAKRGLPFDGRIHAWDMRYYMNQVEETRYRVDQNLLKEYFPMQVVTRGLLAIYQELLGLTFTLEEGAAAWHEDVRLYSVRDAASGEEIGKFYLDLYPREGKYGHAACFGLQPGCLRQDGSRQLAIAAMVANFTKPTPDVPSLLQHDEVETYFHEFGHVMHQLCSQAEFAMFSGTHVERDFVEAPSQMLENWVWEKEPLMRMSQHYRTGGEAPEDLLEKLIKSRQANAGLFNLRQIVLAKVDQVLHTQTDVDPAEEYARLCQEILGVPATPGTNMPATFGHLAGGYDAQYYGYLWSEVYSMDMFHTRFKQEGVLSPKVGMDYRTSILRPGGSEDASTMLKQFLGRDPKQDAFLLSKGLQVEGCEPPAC
Protocol: Specificity of Apstatin--Apstatin was assayed for its ability to inhibit several other peptidases. […] Unless otherwise indicated, the source of each enzyme activity was a detergent extract of bovine lung prepared as described in (12-13). Activities were determined by a modification of the fluorescent assay described above (indicated by "FLUO") or by HPLC separation and quantitation of reaction products using the method described in (12) (method "HPLC-1") or the method described below (method "HPLC-2"). […]

[1] = system: [3H]-bradykinin degradation in the isolated perfused rat lung; test: [3H]-bradykinin degradation in the isolated perfused rat lung (HPLC of perfusate)
Protocol: Using the procedure described herein, under Experimental Procedures it was determined that aminopeptidase P contributed to Bk degradation in the mammalian lung. In that procedure, [^3 H]-Bk (labelled in Pro^2 and Pro^3) was perfused through the isolated lung in the presence or absence of various peptidase inhibitors. The perfusate was then analyzed for radiolabelled products by HPLC. […] Most of the radioactivity (an average of 79%) was in the form of [^3 H]-Pro-Pro [Bk(2-3)] with the remainder being [^3 H]-Bk(1-5). It was hypothesized that pulmonary vascular aminopeptidase P was cleaving the Arg'-Pro^2 bond followed by rapid removal of Pro-Pro by dipeptidylpeptidase IV (DPP IV) (12). Simultaneously, angiotensin converting enzyme (ACE) was sequentially removing Phe-Arg and Ser-Pro from the C-terminus (13). […] However, most of the radioactivity remained in the Pro-Pro peak indicating substantial cleavage of Bk at the N-terminal end.
Perfusion of the Isolated Rat Lung--Male Sprague Dawley rats, weighing 300-500 grams, were anesthetized with sodium pentobarbital (50-75 mg/kg) given by intraperitoneal injection. The trachea was cannulated and the lungs ventilated with air at 70 cycles per minute (Harvard Small Animal Ventilator) at a pressure of 70 mm H2 O. The heart and lungs were exposed via midsternal incision and 1000 units of heparin were administered intracardially. Polyethylene cannulae were secured into the pulmonary artery and the left ventricle. A modified Krebs buffer (118.5 mM NaCl, 4.7 mM KCl, 1.1 mM KH2 PO4, 1.1 mM MgSO4, 2.5 mM CaCl2, 19.6 mM NaHCO3, 5.6 mM dextrose), which was kept in a 50° C. water bath and aerated with 95% O2 -5% CO2 to pH 7.35, was perfused into the pulmonary artery at 35° C. and 2.6 ml/min (LKB Microperplex peristaltic pump). The buffer was circulated through the isolated lung in situ until the effluent was free of blood. The surgical field was maintained at 37° .C with a heat lamp throughout the procedure. Experiments were conducted by introducing [^3 H]-Bk in the presence or absence of test peptidase inhibitors into the pulmonary circulation via the pulmonary artery and then collecting perfusion effluent from the left ventricular cannula. […] The lung was then perfused with 1 μCi [^3 H]-Bk in 1 ml of the inhibitor solution (giving 16 nM Bk) followed by inhibitor solution alone. Effluent was collected in tubes (0.5 min/fraction) containing 150 μl of 2% TFA. For each lung preparation, 5-6 samples were perfused over a period of about one hour. Control perfusions of [^3 H]-Bk alone were always carried out before perfusions of samples containing ramiprilat because of the slow reversibility of inhibition of ACE by this compound. […] The effects of the latter two inhibitors were reversible.
Separation and Identification of Bradykinin Metabolites--The fractions which were collected from each perfusion sample run were counted for radioactivity, and the fraction having the highest radioactive counts was prepared for HPLC by filtration through a Centricon-10 microconcentrator (Amicon). An aliquot of the filtrate containing 25000 dpm (approx. 25 μl) was spiked with a cocktail of unlabelled Bk fragments (3 μl) and then subjected to HPLC using a Waters Radial Compression Separation System with a 5μ NOVA PAK C18 Radial Pak Cartridge. The column was developed at a flow rate of 1 ml/min with a 60 min linear gradient from 100% Solvent A (0.1% TFA in water) to 75% Solvent A: 25% Solvent B (0.08% TFA in acetonitrile) using a Spectra Physics 8700XR Solvent Delivery System. The column effluent was simultaneously monitored for absorbance at 206 nm (LKB Uvicord S) and for radioactivity (Radiomatic Flo-One HS Radioactive Flow Detector using Ultima-Flo M scintillation fluid from Packard, Meriden, Conn.). […] Radioactive peaks were identified by comparison of the retention times to those of the unlabelled standards. […]

For C[C@H](NC(=O)[C@@H]1CCCN1C(=O)[C@@H]1CCCN1C(=O)[C@@H](O)[C@H](N)Cc1ccccc1)C(N)=O [apstatin, N-[(2S, 3R)-3-amino-2-hydroxy-4-phenylbutanoyl]-L-prolyl-L-prolyl-Lalaninamide], the IC50 (endopeptidase 24.15) was > 800 µM, the “percentage of radioactivity eluting from the lung as intact [3H]-Bk” value ([1]; apstatin 40 μM together with ramiprilat (0.5 μM), mean ± SEM, three rats) was 92±4% and 92% and the “percentage of radioactivity eluting from the lung as intact [3H]-Bk” value ([1]; apstatin alone (data not shown), difficult to quantitate accurately) was 1-3%.
